# Reference: US6589759B1, “Compositions and methods for producing platelets and/or proplatelets from megakaryocytes” (Trustees of Boston University, priority 1999, dated 2003)
# Assays:
# Meg-01 cells [1] = assay: Platelet-sized particle production from Meg-01 cells by flow cytometry (GPIIIa positive); assay type: cell-based, human; settings: for production of GPIIIa positive platelet-sized particles: Meg-01 cells pretreated with 100 ng/ml thrombopoietin for 72 hours, then 100 μM SNO-glu for 2 hours
# Description: The production of platelet-sized particles in the Meg-01 cell line using flow cytometry was determined. Human megakaryoblastic leukemia cell line Meg-01 was obtained from American Type Culture Collection (Manassas, Va.) and grown in phenol red-free RPMI-1640 media (Gibco-BRL, Grand Island, N.Y.) supplemented with 10% fetal bovine serum at 37° C. in a humidified atmosphere of 5% CO2. The experiment to monitor platelet production by the megakaryocytoid cell line, Meg-01, were performed as follows: 10 ml of Meg-01 cells (1×10^5/ml) were treated with 100 ng/ml of thrombopoietin (TPO, Amgen, Thousand Oaks, Calif.) for 72 hours. The cells were then centrifuged at 1000 rpm for 10 minutes, washed with phosphate buffered saline (PBS) and resuspended in RPMI-1640 media. Meg-01 cells, in the presence and absence of TPO, were treated with 100 μM SNO-glu for 2 hours. The cells were collected by centrifugation (1000 rpm for 10 minutes), washed once in PBS, resuspended in 500 μl of 3% formaldehyde, and allowed to fix for 20 minutes at room temperature. After fixation, 100 μl of cells were labeled with fluorescein isothiocyanate-conjugated (FITC)-conjugated monoclonal mouse anti-human platelet glycoprotein IIIa, CD61 (GPIIIa, DAKO Corp. Carpinteria, Calif.) at a near saturating concentration and incubated at room temperature for 20 minutes. The sample was diluted in 100 μl of PBS and analyzed on a Coulter EPICS XL flow cytometer (Coulter, Miami, Fla.). DNA check flow cytometry beads purchased from Coulter were used for daily instrument calibration. Appropriate color compensation was set for FITC fluorescence and phycoerythrin fluorescence using 525 nm and 575 nm band pass filters, respectively. All data were saved in flow cytometry list mode files and analyzed using Coulter ELITE software, version 2.21. Platelet-sized particles were identified by characteristic log forward light scatter (LFS). Only those particles that bound the anti-GPIIIa-FITC antibody ([…] FITC-conjugated antibody) (Dako, Denmark) were analyzed (by gating the fluorescence signal).
# Meg-01 cells [2] = assay: Production of cGMP from megakaryocytes treated with SNO-glu (ELISA); assay type: cell-based, human; settings: for cGMP: n = 2
# Description: The Meg-01 cells were grown as described in Example 1. The Med-01 cells, in the presence and absence of TPO, were treated with 100 μM SNO-glu for varying lengths of time. The cells were collected by centrifugation (1000 rpm for 10 minutes), and then lysed with 6% trichloroacteic acid (TCA). The cGMP was extracted with distilled water-saturated ether. The cGMP was quantified using the standard ELISA assay (Caymen Chemical Inc., Ann Arbor, Mich.).
Compound,production of GPIIIa positive platelet-sized particles (Meg-01 cells [1]; listed as S-nitroso-glutathione),production of GPIIIa positive platelet-sized particles (Meg-01 cells [1]; listed as SNO-glu),"formation of GPIIIa positive platelet-sized particles (Meg-01 cells [1]; Meg-01 cells, 100 μM SNO-glu for 2 hours, no TPO)","cGMP (Meg-01 cells [2]; 100 μM SNO-Glu in the presence of TPO, 30 minutes) [pmol cGMP/mg Protein]","cGMP (Meg-01 cells [2]; 100 μM, 5 minutes) [pmol cGMP/mg Protein]","cGMP (Meg-01 cells [2]; 100 μM, 10 minutes) [pmol cGMP/mg Protein]","cGMP (Meg-01 cells [2]; 100 μM, 20 minutes) [pmol cGMP/mg Protein]","cGMP (Meg-01 cells [2]; 100 μM, 30 minutes) [pmol cGMP/mg Protein]","production of cGMP (in words) (Meg-01 cells [2]; Meg-01 cells, 100 μM SNO-glu)","effect of added TPO on cGMP production during SNO-glu treatment (Meg-01 cells [2]; Meg-01 cells, TPO added during 100 μM SNO-glu treatment)"
"N[C@@H](CCC(=O)N[C@@H](CSN=O)C(=O)NCC(=O)O)C(=O)O [SNO-Glu, S-nitroso-glutathione]",promoted platelet-like particle formation,enhanced production of GPIIIa positive platelet-sized particles,formation of GPIIIa positive platelet-sized particle population,0.960,263.1,461.2,472.9,611.3,increased production of cGMP,–
"TPO: thrombopoiesis stimulating factor thrombopoietin (TPO, Amgen)",–,–,–,–,–,–,–,–,–,completely suppressed the production of cGMP
